Values after ≈ are worked out from the molar mass of the structure shown.
Test system: Aspergillus fumigatus
Test: Antimycotic in-vitro activity, serial dilution test (MIC)
Type: cell-based
Settings: Sabouraud's milieu d'epreuve, 28-37 °C, 96 h, inoculum 5 x 10^3 to 10^4 germs/ml, read-out: MHK-Werte in γ/ml Nährmedium, Aspergillus fumigatus
Experimental: (§1) Die in-vitro-Prüfungen wurden im Reihenverdünnungstest mit Keiminokula von durchschnittlich 5 x 10³ bis 10⁴ Keimen/ml Substrat durchgeführt. Als Nähmedium dienten • a) für Dermatophyten und Schimmelpilze: Sabouraud's milieu d'epreuve • b) für Hefen: Fleischextrakt-Traubenzucker-Bouillon.
(§2) Die Bebrütungstemperatur betrug 28 °C bis 37 °C, die Bebrütungsdauer lag bei 24 bis 96 Stunden bei Hefen und 96 Stunden bei Dermatophyten und Schimmelpilzen.

Row | Structure (SMILES) | MIC [µg/mL]
1 | CCSCC(O)(Cn1cncn1)C(C)(C)Cc1ccc(F)cc1 (centres unmarked) [I-2] | 2 (≈ 5.93 µM)
2 | CCCSCC(O)(Cn1cncn1)C(C)(C)Cc1ccc(Cl)cc1 (centres unmarked) [I-41] | < 1
3 | C=CCSCC(O)(Cn1cncn1)C(C)(C)Cc1ccc(Cl)cc1 (centres unmarked) [I-44] | < 1
4 | CCCCSCC(O)(Cn1cncn1)C(C)(C)Cc1ccc(Cl)cc1 (centres unmarked) [I-47] | < 1

Results, then the compound that gave them:

Row | MIC [µg/mL] | Structure (SMILES)
5 | < 1 | CSCC(O)(Cn1cncn1)C(C)(C)Cc1ccc(Cl)cc1 (centres unmarked) [I-42]
6 | < 1 | CC(C)CSCC(O)(Cn1cncn1)C(C)(C)Cc1ccc(Cl)cc1 (centres unmarked) [I-43]
7 | < 1 | CCSCC(O)(Cn1cncn1)C(C)(C)Cc1ccc(Cl)cc1 (centres unmarked) [I-45]

Test system: Candida albicans
Test: as above
Type: cell-based
Settings: Fleischextrakt-Traubenzucker-Bouillon, 28-37 °C, 24-96 h, inoculum 5 x 10^3 to 10^4 germs/ml, read-out: MHK-Werte in γ/ml Nährmedium, Candida albicans
Experimental: as §1, §2

Row | Structure (SMILES) | MIC [µg/mL]
8 | CCSCC(O)(Cn1cncn1)C(C)(C)Cc1ccc(F)cc1 (centres unmarked) [I-2] | < 1
9 | CCCSCC(O)(Cn1cncn1)C(C)(C)Cc1ccc(Cl)cc1 (centres unmarked) [I-41] | < 1
10 | C=CCSCC(O)(Cn1cncn1)C(C)(C)Cc1ccc(Cl)cc1 (centres unmarked) [I-44] | < 1
11 | CCCCSCC(O)(Cn1cncn1)C(C)(C)Cc1ccc(Cl)cc1 (centres unmarked) [I-47] | 2 (≈ 5.24 µM)

Next, values leading:

Row | MIC [µg/mL] | Structure (SMILES)
12 | < 1 | CSCC(O)(Cn1cncn1)C(C)(C)Cc1ccc(Cl)cc1 (centres unmarked) [I-42]
13 | < 1 | CC(C)CSCC(O)(Cn1cncn1)C(C)(C)Cc1ccc(Cl)cc1 (centres unmarked) [I-43]
14 | 2 (≈ 5.65 µM) | CCSCC(O)(Cn1cncn1)C(C)(C)Cc1ccc(Cl)cc1 (centres unmarked) [I-45]

Test system: Microsporum canis
Test: as above
Type: cell-based
Settings: Sabouraud's milieu d'epreuve, 28-37 °C, 96 h, inoculum 5 x 10^3 to 10^4 germs/ml, read-out: MHK-Werte in γ/ml Nährmedium, Microsporum canis
Experimental: as §1, §2

Row | Structure (SMILES) | MIC [µg/mL]
15 | CCSCC(O)(Cn1cncn1)C(C)(C)Cc1ccc(F)cc1 (centres unmarked) [I-2] | 2 (≈ 5.93 µM)
16 | CCCSCC(O)(Cn1cncn1)C(C)(C)Cc1ccc(Cl)cc1 (centres unmarked) [I-41] | < 1
17 | C=CCSCC(O)(Cn1cncn1)C(C)(C)Cc1ccc(Cl)cc1 (centres unmarked) [I-44] | < 1
18 | CCCCSCC(O)(Cn1cncn1)C(C)(C)Cc1ccc(Cl)cc1 (centres unmarked) [I-47] | 4 (≈ 10.5 µM)

Further lines, results first:

Row | MIC [µg/mL] | Structure (SMILES)
19 | < 1 | CSCC(O)(Cn1cncn1)C(C)(C)Cc1ccc(Cl)cc1 (centres unmarked) [I-42]
20 | < 1 | CC(C)CSCC(O)(Cn1cncn1)C(C)(C)Cc1ccc(Cl)cc1 (centres unmarked) [I-43]
21 | < 1 | CCSCC(O)(Cn1cncn1)C(C)(C)Cc1ccc(Cl)cc1 (centres unmarked) [I-45]

Test system: Trichophyton mentagr.
Test: as above
Type: cell-based
Settings: Sabouraud's milieu d'epreuve, 28-37 °C, 96 h, inoculum 5 x 10^3 to 10^4 germs/ml, read-out: MHK-Werte in γ/ml Nährmedium, Trichophyton mentagr.
Experimental: as §1, §2

Row | Structure (SMILES) | MIC [µg/mL]
22 | CCSCC(O)(Cn1cncn1)C(C)(C)Cc1ccc(F)cc1 (centres unmarked) [I-2] | < 1
23 | CCCSCC(O)(Cn1cncn1)C(C)(C)Cc1ccc(Cl)cc1 (centres unmarked) [I-41] | < 1
24 | C=CCSCC(O)(Cn1cncn1)C(C)(C)Cc1ccc(Cl)cc1 (centres unmarked) [I-44] | < 1
25 | CCCCSCC(O)(Cn1cncn1)C(C)(C)Cc1ccc(Cl)cc1 (centres unmarked) [I-47] | < 1

Results, then the compound that gave them:

Row | MIC [µg/mL] | Structure (SMILES)
26 | < 1 | CSCC(O)(Cn1cncn1)C(C)(C)Cc1ccc(Cl)cc1 (centres unmarked) [I-42]
27 | < 1 | CC(C)CSCC(O)(Cn1cncn1)C(C)(C)Cc1ccc(Cl)cc1 (centres unmarked) [I-43]
28 | < 1 | CCSCC(O)(Cn1cncn1)C(C)(C)Cc1ccc(Cl)cc1 (centres unmarked) [I-45]

Test system: Torulopsis glabrata
Test: as above
Type: cell-based
Settings: Nakaseomyces glabratus; Fleischextrakt-Traubenzucker-Bouillon; 28-37 °C, 24-96 h; inoculum 5 x 10^3 to 10^4 germs/ml; read-out: MHK-Werte in γ/ml Nährmedium, Torulopsis glabrata
Experimental: as §1, §2

Row | Structure (SMILES) | MIC [µg/mL]
29 | CCSCC(O)(Cn1cncn1)C(C)(C)Cc1ccc(F)cc1 (centres unmarked) [I-2] | 4 (≈ 11.9 µM)
30 | CCCSCC(O)(Cn1cncn1)C(C)(C)Cc1ccc(Cl)cc1 (centres unmarked) [I-41] | 4 (≈ 10.9 µM)
31 | C=CCSCC(O)(Cn1cncn1)C(C)(C)Cc1ccc(Cl)cc1 (centres unmarked) [I-44] | 4 (≈ 10.9 µM)
32 | CCCCSCC(O)(Cn1cncn1)C(C)(C)Cc1ccc(Cl)cc1 (centres unmarked) [I-47] | 4 (≈ 10.5 µM)

Continued, values first:

Row | MIC [µg/mL] | Structure (SMILES)
33 | 8 (≈ 23.5 µM) | CSCC(O)(Cn1cncn1)C(C)(C)Cc1ccc(Cl)cc1 (centres unmarked) [I-42]
34 | 4 (≈ 10.5 µM) | CC(C)CSCC(O)(Cn1cncn1)C(C)(C)Cc1ccc(Cl)cc1 (centres unmarked) [I-43]
35 | 2 (≈ 5.65 µM) | CCSCC(O)(Cn1cncn1)C(C)(C)Cc1ccc(Cl)cc1 (centres unmarked) [I-45]
